Results: article PMC6771786, “Closing the gap: yeast electron‐transferring flavoprotein links the oxidation of D‐lactate and D‐α‐hydroxyglutarate to energy production via the respiratory chain” (The Febs Journal, 2019)
Blank lines part the entries; values can stand above or below the molecule they belong to.

What was measured:
[1] = target: T1, Dld2 (D-lactate dehydrogenase 2) (Saccharomyces cerevisiae, UniProt P46681); experiment: stopped-flow flavin reduction, hyperbolic fit; format: biochemical; conditions: anaerobic reductive half reaction; 50 mM HEPES, 150 mM NaCl pH 7, 25 °C; 450 nm; fast (first) phase of reduction
T1 construct: produced in Komagataella phaffii KM71H, purified
T1 sequence (P46681 1-530): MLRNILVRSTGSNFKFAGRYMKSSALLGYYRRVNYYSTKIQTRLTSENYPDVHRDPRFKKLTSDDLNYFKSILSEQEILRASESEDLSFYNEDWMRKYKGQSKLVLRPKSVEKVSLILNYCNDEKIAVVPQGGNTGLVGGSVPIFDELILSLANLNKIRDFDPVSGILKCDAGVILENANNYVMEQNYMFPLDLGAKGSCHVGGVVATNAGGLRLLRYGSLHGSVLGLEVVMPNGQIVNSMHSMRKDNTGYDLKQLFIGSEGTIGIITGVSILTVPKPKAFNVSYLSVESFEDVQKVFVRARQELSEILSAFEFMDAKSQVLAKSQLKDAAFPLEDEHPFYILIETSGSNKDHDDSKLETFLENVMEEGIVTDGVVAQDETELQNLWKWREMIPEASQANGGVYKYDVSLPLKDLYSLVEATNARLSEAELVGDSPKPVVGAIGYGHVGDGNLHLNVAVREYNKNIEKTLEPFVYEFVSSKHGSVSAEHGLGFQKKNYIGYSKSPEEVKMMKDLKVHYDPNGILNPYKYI
Source text: stopped-flow flavin reduction, hyperbolic fit on Dld2 (D-lactate dehydrogenase 2)

[2] = target: T2, hETF (ETF from Homo sapiens) (Homo sapiens, UniProt P13804+P38117); experiment: UV-visible photoreduction of bound flavin; format: binding; conditions: co-purified cofactor; 50 mM HEPES pH 7, 1 mM DTT, anaerobic
T2 construct: gene ETFA
T2 sequence (P13804 20-333): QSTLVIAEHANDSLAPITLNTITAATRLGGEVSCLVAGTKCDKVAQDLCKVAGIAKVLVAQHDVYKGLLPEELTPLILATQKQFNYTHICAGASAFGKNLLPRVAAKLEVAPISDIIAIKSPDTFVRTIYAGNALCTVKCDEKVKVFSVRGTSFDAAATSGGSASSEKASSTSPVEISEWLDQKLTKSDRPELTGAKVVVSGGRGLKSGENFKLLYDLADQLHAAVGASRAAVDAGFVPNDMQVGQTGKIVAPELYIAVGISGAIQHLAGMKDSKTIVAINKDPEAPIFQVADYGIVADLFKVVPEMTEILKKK
T2 sequence (P38117 2-255): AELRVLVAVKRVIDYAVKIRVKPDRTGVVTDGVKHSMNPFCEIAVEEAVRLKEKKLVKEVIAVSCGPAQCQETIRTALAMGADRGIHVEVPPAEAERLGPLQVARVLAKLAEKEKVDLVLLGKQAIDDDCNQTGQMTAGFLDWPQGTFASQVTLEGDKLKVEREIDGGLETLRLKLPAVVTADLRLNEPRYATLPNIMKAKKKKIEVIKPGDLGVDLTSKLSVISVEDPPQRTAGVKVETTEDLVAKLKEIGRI

[3] = target: T3, hETF (ETF from Homo sapiens) (Homo sapiens, UniProt P13804+P38117, P38117:Y16F); experiment: UV-visible photoreduction of bound flavin; format: binding; conditions: co-purified cofactor; 50 mM HEPES pH 7, 1 mM DTT, anaerobic
T3 construct: gene ETFA
T3 sequence (P13804 20-333): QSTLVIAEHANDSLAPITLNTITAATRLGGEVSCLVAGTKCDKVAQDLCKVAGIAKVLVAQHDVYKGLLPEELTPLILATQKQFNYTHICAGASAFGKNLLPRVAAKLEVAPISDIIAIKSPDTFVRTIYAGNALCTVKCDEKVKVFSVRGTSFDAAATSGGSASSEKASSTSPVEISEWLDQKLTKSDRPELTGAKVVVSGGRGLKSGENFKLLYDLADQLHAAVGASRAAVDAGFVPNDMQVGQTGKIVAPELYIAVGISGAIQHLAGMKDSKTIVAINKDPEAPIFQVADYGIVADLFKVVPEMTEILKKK
T3 sequence (P38117 2-255 Y16F): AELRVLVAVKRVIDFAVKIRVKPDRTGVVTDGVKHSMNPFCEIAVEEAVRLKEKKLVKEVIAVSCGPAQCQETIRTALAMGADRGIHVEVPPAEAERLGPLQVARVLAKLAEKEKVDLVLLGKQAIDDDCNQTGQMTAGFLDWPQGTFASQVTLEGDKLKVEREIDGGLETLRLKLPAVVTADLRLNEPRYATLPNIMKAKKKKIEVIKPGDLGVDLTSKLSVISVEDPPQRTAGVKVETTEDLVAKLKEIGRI

[4] = target: T4, yETF (electron-transferring flavoprotein of Saccharomyces cerevisiae) (Saccharomyces cerevisiae, UniProt P42940+Q12480); experiment: UV-visible spectrum, native vs SDS-denatured; HPLC-DAD; format: binding; conditions: co-purified cofactor; 50 mM HEPES pH 7, 1 mM DTT, 25 °C
T4 construct: gene AIM45; heterodimer (alpha 38 kDa, beta 37 kDa), N-terminal hexahistidine tag on beta subunit (pETM11-His TEV), produced in E. coli Rosetta (DE3)-pLysS
T4 sequence (Q12480 15-344): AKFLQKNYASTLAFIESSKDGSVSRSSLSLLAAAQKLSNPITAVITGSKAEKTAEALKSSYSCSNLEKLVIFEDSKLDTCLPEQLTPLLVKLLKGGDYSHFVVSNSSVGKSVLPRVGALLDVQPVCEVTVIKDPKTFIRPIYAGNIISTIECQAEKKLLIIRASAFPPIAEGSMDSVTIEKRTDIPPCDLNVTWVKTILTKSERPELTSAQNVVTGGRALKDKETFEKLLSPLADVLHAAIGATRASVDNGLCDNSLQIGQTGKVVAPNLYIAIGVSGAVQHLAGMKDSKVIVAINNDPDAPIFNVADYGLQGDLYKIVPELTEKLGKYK
T4 sequence (P42940 1-261): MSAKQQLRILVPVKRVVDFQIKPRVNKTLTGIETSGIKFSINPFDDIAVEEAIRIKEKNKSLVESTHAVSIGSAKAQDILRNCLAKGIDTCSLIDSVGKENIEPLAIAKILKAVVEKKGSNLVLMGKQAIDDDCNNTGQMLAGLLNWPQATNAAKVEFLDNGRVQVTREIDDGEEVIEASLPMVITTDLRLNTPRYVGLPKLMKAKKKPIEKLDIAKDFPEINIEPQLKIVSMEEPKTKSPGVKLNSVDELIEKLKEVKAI

purified protein = substrate: O=C(O)CC[C@@H](O)C(=O)O; experiment: purified protein; format: biochemical, Saccharomyces cerevisiae; conditions: 125 µM 2,6-dichlorophenol indophenol as acceptor, aerobic, 50 mM HEPES, 150 mM NaCl pH 7, 25 °C, apparent

Kd [1]: 15 ± 1 mM
Molecule: C[C@@H](O)C(=O)O [D‐lactate]

Molecule: Cc1cc2nc3c(=O)[nH]c(=O)nc-3n(C[C@H](O)[C@H](O)[C@H](O)COP(=O)(O)OP(=O)(O)OC[C@H]3O[C@@H](n4cnc5c(N)ncnc54)[C@H](O)[C@@H]3O)c2cc1C [FAD]
UV-visible photoreduction of bound flavin [2]: hETF wild‐type (C), and hETF‐βTyr16Phe (D) in the course of the photoreduction: oxidized FAD | UV-visible photoreduction of bound flavin [3]: hETF‐βTyr16Phe (D) in the course of the photoreduction: oxidized FAD | UV-visible spectrum, native vs SDS-denatured; HPLC-DAD [4]: absorption spectrum of denatured yETF further indicate the presence of an FAD chromophore

B1: Dld2 (D-lactate dehydrogenase 2) (Saccharomyces cerevisiae S288C) (protein)
chain: MLRNILVRSTGSNFKFAGRYMKSSALLGYYRRVNYYSTKIQTRLTSENYPDVHRDPRFKKLTSDDLNYFKSILSEQEILRASESEDLSFYNEDWMRKYKGQSKLVLRPKSVEKVSLILNYCNDEKIAVVPQGGNTGLVGGSVPIFDELILSLANLNKIRDFDPVSGILKCDAGVILENANNYVMEQNYMFPLDLGAKGSCHVGGVVATNAGGLRLLRYGSLHGSVLGLEVVMPNGQIVNSMHSMRKDNTGYDLKQLFIGSEGTIGIITGVSILTVPKPKAFNVSYLSVESFEDVQKVFVRARQELSEILSAFEFMDAKSQVLAKSQLKDAAFPLEDEHPFYILIETSGSNKDHDDSKLETFLENVMEEGIVTDGVVAQDETELQNLWKWREMIPEASQANGGVYKYDVSLPLKDLYSLVEATNARLSEAELVGDSPKPVVGAIGYGHVGDGNLHLNVAVREYNKNIEKTLEPFVYEFVSSKHGSVSAEHGLGFQKKNYIGYSKSPEEVKMMKDLKVHYDPNGILNPYKYI
notes: produced in Komagataella phaffii KM71H, purified
Km (purified protein): 350 ± 50 µM | kcat (purified protein): 0.42 ± 0.02 s⁻¹ | kcat/Km (purified protein): 1200 ± 300 M⁻¹ s⁻¹
